Assay results taken from patent publication US20150196612A1, “Anti-enterovirus 71 steroidal saponins and their preparation” (Shanghai University of Traditional Chinese Medicine, priority 2014, published 2015).

Tests used:
enterovirus 71 (EV71) = test: anti-EV71 activity (antiviral bioassay); assay type: cell-based
[1] = test system: respiratory syncytial virus (RSV); conditions: read-out: IC50, inhibitory effects on RSV; cited from earlier work
[2] = cytotoxicity (CC50) of steroidal saponins

For `CC1=C(CCC(C)CO[C@@H]2O[C@H](CO)[C@@H](O)[C@H](O)[C@H]2O)O[C@H]2CC3C4CCC5CC(O[C@@H]6O[C@H](CO)[C@H](O)[C@H](O)[C@H]6O[C@@H]6O[C@H](CO)[C@@H](O)[C@H](O)[C@H]6O)CC[C@]5(C)C4CC[C@]3(C)[C@@H]12` (stereo partly drawn) [compound 3, anemarsaponin B], the “anti-EV71 activity of compounds (in words)” value (enterovirus 71 (EV71); FIG. 6) was “completely inactive”.
For `NC(=O)c1ncn([C@@H]2O[C@H](CO)[C@@H](O)[C@H]2O)n1` [Ribavirin, ribavirin, reference compound], the “Selective Index (SI)” value (enterovirus 71 (EV71); FIG. 6) was 2.365.
With `C[C@H]1CC[C@@]2(OC1)O[C@H]1C[C@H]3[C@@H]4CC[C@@H]5C[C@@H](O)CC[C@]5(C)[C@H]4CC[C@]3(C)[C@H]1[C@@H]2C` [compound 8, Sarsasapogenin, reference compound] the “anti-EV71 activity of compounds (in words)” value (enterovirus 71 (EV71); FIG. 6) was “completely inactive”.
In the case of `C[C@H]1CC[C@@]2(OC1)O[C@H]1C[C@H]3[C@@H]4CC[C@@H]5C[C@@H](O[C@@H]6O[C@H](CO)[C@H](O)[C@H](O)[C@H]6O[C@@H]6O[C@H](CO)[C@@H](O)[C@H](O)[C@H]6O)CC[C@]5(C)[C@H]4CC[C@]3(C)[C@H]1[C@@H]2C` [compound 7, timosaponin A-III], the IC50 [1] is listed as 1 µM and the IC50 (enterovirus 71 (EV71); FIG. 6, read-out: IC50 (50% inhibitory concentration), anti-EV71) is listed as 1.06 µM.
With `C[C@@H](CC[C@@]1(O)O[C@H]2C[C@H]3[C@@H]4CC[C@@H]5C[C@@H](O[C@@H]6O[C@H](CO)[C@H](O)[C@H](O)[C@H]6O[C@@H]6O[C@H](CO)[C@@H](O)[C@H](O)[C@H]6O)CC[C@]5(C)[C@H]4CC[C@]3(C)[C@H]2[C@@H]1C)CO[C@@H]1O[C@H](CO)[C@@H](O)[C@H](O)[C@H]1O` [compound 2, timosaponin B-II] the CC50 [2] was 401 µM, the “Selective Index (SI)” value (enterovirus 71 (EV71); FIG. 6) was 92.876 and the “IC50 as percentage of that of positive control ribavirin” value (enterovirus 71 (EV71); relative to ribavirin) was 1%. For the same compound, the “selectivity index relative to ribavirin's” value (enterovirus 71 (EV71); relative to ribavirin) was “more than 40 times”.
